This note sets out measurements from patent US12723063B2, “GIPR-agonist compounds” (Eli Lilly and Company, priority 2019, dated 2026).

*1 amine or outer side, *2 acyl side, *3 side chain or, on linkers, in order; H or OH if unused. Where a SMILES comes first, the peptide text is derived from it. Side-chain parts run from the residue outwards. [ ]: non-standard residue; d: D form. The star is where a group is joined. C20 diacid = O=C(O)CCCCCCCCCCCCCCCCCCC(=O)*; αMePhe(2-F) = C[C@](N)(Cc1ccccc1F)C(=O)O; γGlu = O=C(O)[C@H](CCC(=O)[*:2])N[*:1]; αMeF = C[C@](N)(Cc1ccccc1)C(=O)O; 4Pal = N[C@@H](Cc1ccncc1)C(=O)O; αMeL = CC(C)C[C@](C)(N)C(=O)O; AEEA = NCCOCCOCC(=O)O; Aib = CC(C)(N)C(=O)O

One assay has as its target T1, human GIPR (Homo sapiens, UniProt P48546).
T1 construct: expressed in transfected cells; crude membranes
T1 sequence (P48546 22-466): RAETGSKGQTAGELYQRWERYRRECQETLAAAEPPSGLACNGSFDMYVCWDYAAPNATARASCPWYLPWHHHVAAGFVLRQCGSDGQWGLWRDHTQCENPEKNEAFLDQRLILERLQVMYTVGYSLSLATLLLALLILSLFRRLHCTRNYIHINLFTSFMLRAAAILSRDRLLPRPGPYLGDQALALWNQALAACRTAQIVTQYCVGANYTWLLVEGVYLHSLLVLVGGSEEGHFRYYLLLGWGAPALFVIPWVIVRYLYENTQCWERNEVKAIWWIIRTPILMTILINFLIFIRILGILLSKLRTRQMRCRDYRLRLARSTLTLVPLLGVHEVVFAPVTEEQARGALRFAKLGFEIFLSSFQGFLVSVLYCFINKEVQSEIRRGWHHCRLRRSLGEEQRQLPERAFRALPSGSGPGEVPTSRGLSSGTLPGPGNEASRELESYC
The assay is described as follows: [125I]-GIP binding, SPA with WGA beads, 0.1% bacitracin. Particulars: geometric mean, read-out: hGIPR Ki. In outline:
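Ki values are geometric means (SEM, n independent days), derived from four-parameter nonlinear regression of IC50. Membranes came from hGIPR-expressing CHO cells.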

In a further assay the target is T2, human GcgR (Homo sapiens, UniProt P47871).
T2 construct: expressed in transfected cells; crude membranes
Kind of assay: [125I]-Glucagon binding, SPA with WGA beads, 0.1% bacitracin. Particulars: geometric mean, read-out: hGcgR Ki. In outline:
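SPA competition binding with WGA beads on crude membranes from HEK293 cells stably expressing hGcgR. Buffer: 25 mM HEPES pH 7.4, 2.5 mM CaCl2, 1 mM MgCl2, 0.1% bacitracin, 0.003% Tween-20; 10-point 3-fold dilutions, NSB with 1 μM Gcg.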

T2 sequence (P47871 26-477): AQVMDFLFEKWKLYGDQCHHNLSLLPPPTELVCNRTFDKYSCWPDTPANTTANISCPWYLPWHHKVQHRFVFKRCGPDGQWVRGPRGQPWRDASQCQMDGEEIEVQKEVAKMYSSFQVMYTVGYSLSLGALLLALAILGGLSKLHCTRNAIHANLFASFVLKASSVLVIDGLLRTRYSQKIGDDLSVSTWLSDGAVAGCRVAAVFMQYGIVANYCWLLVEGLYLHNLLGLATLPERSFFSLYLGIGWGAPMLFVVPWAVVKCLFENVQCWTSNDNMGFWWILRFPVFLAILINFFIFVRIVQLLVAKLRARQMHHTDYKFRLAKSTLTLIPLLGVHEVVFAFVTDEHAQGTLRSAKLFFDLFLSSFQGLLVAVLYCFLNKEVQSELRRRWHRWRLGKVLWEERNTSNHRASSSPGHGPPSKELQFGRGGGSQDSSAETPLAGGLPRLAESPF

Regarding `CC[C@H](C)[C@H](NC(=O)[C@H](CO)NC(=O)[C@H](Cc1ccc(O)cc1)NC(=O)[C@H](CC(=O)O)NC(=O)[C@H](CO)NC(=O)[C@@H](NC(=O)[C@](C)(Cc1ccccc1F)NC(=O)[C@@H](NC(=O)CNC(=O)[C@H](CCC(=O)O)NC(=O)C(C)(C)NC(=O)[C@@H](N)Cc1ccc(O)cc1)[C@@H](C)O)[C@@H](C)CC)C(=O)N[C@@H](C)C(=O)N[C@@H](CC(C)C)C(=O)N[C@@H](CC(=O)O)C(=O)N[C@@H](CCCCN)C(=O)N[C@@H](CCCCNC(=O)COCCOCCNC(=O)COCCOCCNC(=O)CC[C@H](NC(=O)CCCCCCCCCCCCCCCCCCC(=O)O)C(=O)O)C(=O)N[C@@H](Cc1c[nH]cn1)C(=O)N[C@@H](CCC(N)=O)C(=O)NC(C)(C)C(=O)N[C@@H](CC(=O)O)C(=O)N[C@@H](Cc1ccccc1)C(=O)N[C@H](C(=O)N[C@@H](CCC(=O)O)C(=O)N[C@@H](Cc1ccc(O)cc1)C(=O)N[C@@H](CC(C)C)C(=O)N[C@@H](CC(C)C)C(=O)N[C@@H](CCC(=O)O)C(=O)N[C@H](C(=O)NCC(=O)N1CCC[C@H]1C(=O)N[C@@H](CO)C(=O)N[C@@H](CO)C(=O)NCC(=O)N[C@@H](C)C(=O)N1CCC[C@H]1C(=O)N1CCC[C@H]1C(=O)N1CCC[C@H]1C(=O)N[C@@H](CO)C(N)=O)[C@@H](C)O)C(C)C` [Example 36] (H-Y[Aib]EGT[αMePhe(2-F)]ISDYSIALDKK([AEEA-AEEA-γGlu-C20 diacid])HQ[Aib]DFVEYLLETGPSSGAPPPS-NH2), the inhibition constant Ki (usually a measure of affinity in units of concentration, obtained from inhibition or displacement) worked out at 0.0683 nM on human GIPR and 201 nM at human GcgR.
In the case of `CC[C@H](C)[C@H](NC(=O)[C@H](Cc1ccccc1)NC(=O)[C@@H](NC(=O)CNC(=O)[C@H](CCC(=O)O)NC(=O)C(C)(C)NC(=O)[C@@H](N)Cc1ccc(O)cc1)[C@@H](C)O)C(=O)N[C@@H](CO)C(=O)N[C@@H](CC(=O)O)C(=O)N[C@@H](Cc1ccc(O)cc1)C(=O)N[C@@H](CO)C(=O)N[C@H](C(=O)N[C@@](C)(CC(C)C)C(=O)N[C@@H](CC(C)C)C(=O)N[C@@H](CC(=O)O)C(=O)N[C@@H](CCCCN)C(=O)N[C@@H](CCCCNC(=O)COCCOCCNC(=O)COCCOCCNC(=O)CC[C@H](NC(=O)CCCCCCCCCCCCCCCCCCC(=O)O)C(=O)O)C(=O)N[C@@H](Cc1c[nH]cn1)C(=O)N[C@@H](CCC(N)=O)C(=O)NC(C)(C)C(=O)N[C@@H](CC(=O)O)C(=O)N[C@@H](Cc1ccccc1)C(=O)N[C@H](C(=O)N[C@@H](CCC(=O)O)C(=O)N[C@@H](Cc1ccncc1)C(=O)N[C@@H](CC(C)C)C(=O)N[C@@H](CC(C)C)C(=O)N[C@@H](C)C(=O)N[C@H](C(=O)NCC(=O)N1CCC[C@H]1C(=O)N[C@@H](CO)C(=O)N[C@@H](CO)C(=O)NCC(=O)N[C@@H](C)C(=O)N1CCC[C@H]1C(=O)N1CCC[C@H]1C(=O)N1CCC[C@H]1C(=O)N[C@@H](CO)C(N)=O)[C@@H](C)O)C(C)C)[C@@H](C)CC` [Example 70] (H-Y[Aib]EGTFISDYSI[αMeL]LDKK([AEEA-AEEA-γGlu-C20 diacid])HQ[Aib]DFVE[4Pal]LLATGPSSGAPPPS-NH2), the Ki at human GIPR was 0.0421 nM; at human GcgR, 857 nM.
Take `CC[C@H](C)[C@H](NC(=O)[C@H](CO)NC(=O)[C@H](Cc1ccc(O)cc1)NC(=O)[C@H](CC(=O)O)NC(=O)[C@H](CO)NC(=O)[C@@H](NC(=O)[C@](C)(Cc1ccccc1)NC(=O)[C@@H](NC(=O)CNC(=O)[C@H](CCC(=O)O)NC(=O)C(C)(C)NC(=O)[C@@H](N)Cc1ccc(O)cc1)[C@@H](C)O)[C@@H](C)CC)C(=O)N[C@@](C)(CC(C)C)C(=O)N[C@@H](CC(C)C)C(=O)N[C@@H](CC(=O)O)C(=O)N[C@@H](CCCCN)C(=O)N[C@@H](CCCCNC(=O)COCCOCCNC(=O)COCCOCCNC(=O)CC[C@H](NC(=O)CCCCCCCCCCCCCCCCCCC(=O)O)C(=O)O)C(=O)N[C@@H](Cc1c[nH]cn1)C(=O)N[C@@H](CCC(N)=O)C(=O)NC(C)(C)C(=O)N[C@@H](CCC(=O)O)C(=O)N[C@@H](Cc1ccccc1)C(=O)N[C@H](C(=O)N[C@@H](CCC(=O)O)C(=O)N[C@@H](Cc1ccncc1)C(=O)N[C@@H](CC(C)C)C(=O)N[C@@H](CC(C)C)C(=O)N[C@@H](C)C(=O)N[C@@H](CCC(N)=O)C(=O)NCC(=O)N1CCC[C@H]1C(=O)N[C@@H](CO)C(=O)N[C@@H](CO)C(=O)NCC(=O)N[C@@H](C)C(=O)N1CCC[C@H]1C(=O)N1CCC[C@H]1C(=O)N1CCC[C@H]1C(=O)N[C@@H](CO)C(N)=O)C(C)C` [Example 60] (H-Y[Aib]EGT[αMeF]ISDYSI[αMeL]LDKK([AEEA-AEEA-γGlu-C20 diacid])HQ[Aib]EFVE[4Pal]LLAQGPSSGAPPPS-NH2): the inhibitory constant (Ki) at human GIPR turned out to be 0.039 nM; at human GcgR, 26.2 nM.
Consider `CC[C@H](C)[C@H](NC(=O)[C@H](Cc1ccccc1)NC(=O)[C@@H](NC(=O)CNC(=O)[C@H](CCC(=O)O)NC(=O)C(C)(C)NC(=O)[C@@H](N)Cc1ccc(O)cc1)[C@@H](C)O)C(=O)N[C@@H](CO)C(=O)N[C@@H](CC(=O)O)C(=O)N[C@@H](Cc1ccc(O)cc1)C(=O)N[C@@H](CO)C(=O)N[C@H](C(=O)N[C@@](C)(CC(C)C)C(=O)N[C@@H](CC(C)C)C(=O)N[C@@H](CC(=O)O)C(=O)N[C@@H](CCCCN)C(=O)N[C@@H](CCCCNC(=O)COCCOCCNC(=O)COCCOCCNC(=O)CC[C@H](NC(=O)CCCCCCCCCCCCCCCCCCC(=O)O)C(=O)O)C(=O)N[C@@H](Cc1c[nH]cn1)C(=O)N[C@@H](CCC(N)=O)C(=O)NC(C)(C)C(=O)N[C@@H](CC(=O)O)C(=O)N[C@@H](Cc1ccccc1)C(=O)N[C@H](C(=O)N[C@@H](CCC(=O)O)C(=O)N[C@@H](Cc1ccncc1)C(=O)N[C@@H](CC(C)C)C(=O)N[C@@H](CC(C)C)C(=O)N[C@@H](CCC(=O)O)C(=O)N[C@H](C(=O)NCC(=O)N1CCC[C@H]1C(=O)N[C@@H](CO)C(=O)N[C@@H](CO)C(=O)NCC(=O)N[C@@H](C)C(=O)N1CCC[C@H]1C(=O)N1CCC[C@H]1C(=O)N1CCC[C@H]1C(=O)N[C@@H](CO)C(N)=O)[C@@H](C)O)C(C)C)[C@@H](C)CC` [Example 45] (H-Y[Aib]EGTFISDYSI[αMeL]LDKK([AEEA-AEEA-γGlu-C20 diacid])HQ[Aib]DFVE[4Pal]LLETGPSSGAPPPS-NH2), for which the Ki at human GIPR was 0.0663 nM; on human GcgR it was 660 nM.
With `CC[C@H](C)[C@H](NC(=O)[C@H](Cc1ccccc1)NC(=O)[C@@H](NC(=O)CNC(=O)[C@H](CCC(=O)O)NC(=O)C(C)(C)NC(=O)[C@@H](N)Cc1ccc(O)cc1)[C@@H](C)O)C(=O)N[C@@H](CO)C(=O)N[C@@H](CC(=O)O)C(=O)N[C@@H](Cc1ccc(O)cc1)C(=O)N[C@@H](CO)C(=O)N[C@H](C(=O)N[C@@](C)(CC(C)C)C(=O)N[C@@H](CC(C)C)C(=O)N[C@@H](CC(=O)O)C(=O)N[C@@H](CCCCN)C(=O)N[C@@H](CCCCNC(=O)COCCOCCNC(=O)COCCOCCNC(=O)CC[C@H](NC(=O)CCCCCCCCCCCCCCCCCCC(=O)O)C(=O)O)C(=O)N[C@@H](Cc1c[nH]cn1)C(=O)N[C@@H](CCC(N)=O)C(=O)NC(C)(C)C(=O)N[C@@H](CC(=O)O)C(=O)N[C@@H](Cc1ccccc1)C(=O)N[C@H](C(=O)N[C@@H](CCC(=O)O)C(=O)N[C@@H](Cc1ccc(O)cc1)C(=O)N[C@@H](CC(C)C)C(=O)N[C@@H](CC(C)C)C(=O)N[C@@H](CCC(=O)O)C(=O)N[C@@H](C)C(=O)NCC(=O)N1CCC[C@H]1C(=O)N[C@@H](CO)C(=O)N[C@@H](CO)C(=O)NCC(=O)N[C@@H](C)C(=O)N1CCC[C@H]1C(=O)N1CCC[C@H]1C(=O)N1CCC[C@H]1C(=O)N[C@@H](CO)C(N)=O)C(C)C)[C@@H](C)CC` [Example 68] (H-Y[Aib]EGTFISDYSI[αMeL]LDKK([AEEA-AEEA-γGlu-C20 diacid])HQ[Aib]DFVEYLLEAGPSSGAPPPS-NH2), the Ki at human GIPR was found to be 0.0948 nM; on human GcgR, 290 nM.
